Legend:
benzodiazepine receptor = experiment: [3H]diazepam binding to benzodiazepine receptor (crude mitochondrial fraction of cerebral cortex); set-up: species or system male SD rats; details: inhibition of ³H-diazepam (2 nM) binding by 50%, 4 °C, 20 minutes, Tris-HCl pH 7.4; read-out: IC₅₀
Protocol: The affinity of the compound of the present invention to a benzodiazepine receptor was investigated using radioactive [³H] diazepam.
Capability of specific binding to a benzodiazepin receptor was determined in accordance with the method described in the literature [Nature, 266, 732 (1977); European J. Pharmacol., 48, 263 (1978)]. Specifically, a crude mitochondrial fraction obtained from the cerebral cortex of male SD rats at 9 to 10 weeks of age was suspended in 50 mM Tris-HCL buffer (pH 7.4), and incubated, together with several concentrations of the subject drug and ³H-diazepam (final concentration 2 nM), at 4 °C for 20 minutes. This suspension was then filtered through a Whatman GF/B glass fiber filter, and the ³H-diazepam radioactivity on the filter was measured using a liquid scintillation counter. The concentration of the subject drug at which ³H-diazepam binding was inhibited by 50% was taken as the IC₅₀ value.

Male rats (SD/JCL) = experiment: Antianxiety action (Vogel method, anticonflict water drinking test); assay type: in vivo; details: for Minimum Effective Dose (MED): rats; for antianxiety action stronger than that of the racemic compounds: ratio of MED of the racemic compound to MED of the optically active compound (Table 2)

Row | Compound | IC50 (benzodiazepine receptor) [nM] | Minimum Effective Dose (MED) (Male rats (SD/JCL); p.o., 30 minutes after dosing, water drinking frequency in 3 minutes) | Minimum Effective Dose (MED) (Male rats (SD/JCL); i.p., Vogel method) | antianxiety action stronger than that of the racemic compounds (Male rats (SD/JCL)) [times]
1 | O=C(CC1c2ccccc2C(=O)N1c1ccc2ccc(Cl)nc2n1)N1CCC2(CC1)OCCO2 (racemic) [Racemic compound of Example 1, 2-(7-chloro-1,8-naphthylidin-2-yl)-3-[(1,4-dioxa-8-azaspiro[4.5]dec-8-yl)carbonylmethyl]isoindolin-1-one, reference compound] | 0.38 | 10 mg/kg, p.o. |  | 
2 | O=C(CC1c2ccccc2C(=O)N1c1ccc2ccc(Cl)nc2n1)N1CCC(O)CC1 (racemic) [Racemic compound of Example 3, 2-(7-chloro-1,8-naphthylidin-2-yl)-3-[(4-hydroxypiperidin-1-yl)carbonylmethyl]isoindolin-1-one, reference compound] | 2.14 |  | 20 mg/kg, i.p. | 
3 | O=C(C[C@H]1c2ccccc2C(=O)N1c1ccc2ccc(Cl)nc2n1)N1CCC2(CC1)OCCO2 [Example 1, (S)-(+)-2-(7-chloro-1,8-naphthylidin-2-yl)-3-[(1,4-dioxa-8-azaspiro[4.5]dec-8-yl)carbonylmethyl]isoindolin-1-one] | 0.32 |  |  | 8
4 | O=C(C[C@H]1c2ccccc2C(=O)N1c1ccc2ccc(Cl)nc2n1)N1CCC(O)CC1 [Example 3, (S)-(+)-2-(7-chloro-1,8-naphthylidin-2-yl)-3-[(4-hydroxypiperidin-1-yl)carbonylmethyl]isoindolin-1-one] | 0.92 |  | Compound in Example 3 5.0 mg/kg, i.p. | 4
